Test results: publication PMC8807572, “The zebrafish embryo as an in vivo model for screening nanoparticle-formulated lipophilic anti-tuberculosis compounds” (Disease Models & Mechanisms, 2022)
In brackets after ≈: the same amount, converted by molar mass. Several values for one entry are separate records, joined by “and”; a condition that tells them apart may be missing. Equal values may be shown once. Read-outs that look alike come from different tables or passages of the source.

What was measured:
extracellular Mm = assay: MIC90 resazurin microtiter assay against extracellular M. marinum; assay type: cell-based, Mycobacterium marinum
[1] = system: intracellular Mm in murine BMDMs; assay: Anti-mycobacterial efficacy in M. marinum-infected BMDMs (CFU plating); assay type: cell-based, Mycobacterium marinum; details: for IC90: Mycobacterium marinum
Mtb = system: Mtb; design: method as in data not published; details: in vitro, phenotypic HTS; ref data not published; cited from earlier work
VERO cells = system: VERO cells; design: method as in data not published; details: cytotoxicity in VERO cells; ref data not published; cited from earlier work

| Structure (SMILES) | MIC90 (extracellular Mm; Mycobacterium marinum) | MIC90 (extracellular Mm; extracellular Mm, resazurin assay) [µg/mL] | MIC90 (extracellular Mm; extracellular Mm, resazurin assay, read-out: MIC90) [µM] | IC90 ([1]; BMDM) | IC99 ([1]; intracellular M. marinum in BMDM, calculated from the macrophage infection assay data) | MIC90 against Mtb (Mtb) [µg/mL] | CC50 (VERO cells) [µg/mL] | MIC90 (extracellular Mm; Mycobacterium marinum, extracellular Mm, resazurin assay, read-out: MIC90) | IC99 [1] | IC90 ([1]; intracellular M. marinum in BMDM, calculated from the macrophage infection assay data, read-out: IC90) |
| --- | --- | --- | --- | --- | --- | --- | --- | --- | --- | --- |
| COc1ccc2c(ccc3oc([N+](=O)[O-])cc32)c1 [C16, 7-methoxy-2-nitronaphtho[2,1-b]furan] | 0.016 µg/mL and 0.07 µM | 0.016 | 0.07 | 0.013 µg/mL and 60 nM | 0.03 µg/ml and 0.11 µM | < 8 | 0.3 (≈ 1.23 µM) |  |  |  |
| CO[C@H]1/C=C/O[C@@]2(C)Oc3c(C)c(O)c4c(O)c(c(/C=N/N5CCN(C)CC5)c(O)c4c3C2=O)NC(=O)/C(C)=C\C=C\[C@H](C)[C@H](O)[C@@H](C)[C@@H](O)[C@@H](C)[C@H](OC(C)=O)[C@@H]1C [RIF, rifampicin] |  |  |  |  |  |  |  | 0.1 µg/mL and 0.12 µM | 1.97 µg/ml and 2.41 µM | 0.878 µg/mL and 1.07 µM |
